This is an account of results in patent publication US11124605B2, “Antimicrobial alpha-helical cationic polypeptides” (priority 2015, dated 2021).

One series relates to MG1655 (E. coli). The experiment in a line: Minimal inhibitory concentration (MIC). The format is cell-based, Escherichia coli. Particulars: without polypeptide. The method, then:
(§1) Gram-negative bacteria, DH5a (E. coli), MG1655 (E. coli), C101 (Pseudomonas aeruginosa), and Gram-positive bacteria, ATCC12608 (S. aureus), ATCC11778 (Bacillus toyonensis), and methicillin-resistant S. aureus (MRSA) strains, NRS382, NRS383, NRS384 were grown in LB medium at 37° C. Clinical isolated Helicobacter pylori strains, B107, J291, J99, J99-AF, J99-A9 and J99-A11 were incubated in BB with 10% FBS supplemented with vancomycin (5 μg/mL) at 37° C. Among them, J99-AF, J99-A9 and J99-A11 are drug resistant bacteria. For determination of the MIC, polypeptides were dissolved in media using serial dilutions from a stock solution. Into each well of a 96-well plate was added 200 μL of each concentration and 2 μL of bacteria (1×10^8 CFU (colony forming units)) in medium. The plate was incubated at 37° C. The optical density readings of microorganism solutions were measured after 24 h incubation. The MIC was considered as the lowest concentration of peptide where no visual growth of bacteria was detected.

Series [1] concerns C101 (Pseudomonas aeruginosa). The experiment in a line: Minimal inhibitory concentration (MIC). The format is cell-based. Particulars: without polypeptide. On the procedure:
as §1

In series [2] the test system is ATCC12608 (Staphylococcus aureus). The experiment in a line: Minimal inhibitory concentration (MIC). Particulars: without polypeptide. It counts as cell-based. The method, then:
as §1
The stability of polypeptide was tested in the MIC assay in different environments, including salts, serum, plasma, tear fluid, and mucin. […]

A further series has as its system DH5α (Escherichia coli). Nature of the series: Minimal inhibitory concentration (MIC). The format is cell-based. Particulars: without polypeptide.
In series [3] the test system is ATCC11778 (Bacillus toyonensis). The experiment in a line: Minimal inhibitory concentration (MIC). It counts as cell-based. Particulars: without polypeptide. On the procedure: as §1
The test system of series [4] is trypsin, pronase, elastase from Pseudomonas aeruginosa, elastase from human leukocytes. The experiment in a line: Stability of polypeptides against protease (HPLC). It counts as in vitro ADME. Particulars: 8 h incubation with trypsin, P. aeruginosa elastase or human leukocyte elastase.
Method: As a positive control, LL-37 (0.1 mg/mL) was also incubated with trypsin (0.1 mg/mL) or pronase (12 mg/L) or Pseudomonas Aeruginosa elastase (0.6 mg/L) in Tris buffer (pH 7.4) at 37° C. LL-37 (0.1 mg/mL) was incubated with elastase from human leukocytes (2.5 mg/L) in sodium acetate buffer at 37° C. After 8 h of incubation, the samples were taken out for HPLC analyses.

Method for DH5α (Escherichia coli): Gram-negative bacteria, DH5a (E. coli), MG1655 (E. coli), C101 (Pseudomonas aeruginosa), and Gram-positive bacteria, ATCC12608 (S. aureus), ATCC11778 (Bacillus toyonensis), and methicillin-resistant S. aureus (MRSA) strains, NRS382, NRS383, NRS384 were grown in LB medium at 37° C. […] For determination of the MIC, polypeptides were dissolved in media using serial dilutions from a stock solution. Into each well of a 96-well plate was added 200 μL of each concentration and 2 μL of bacteria (1×10^8 CFU (colony forming units)) in medium. The plate was incubated at 37° C. The optical density readings of microorganism solutions were measured after 24 h incubation. The MIC was considered as the lowest concentration of peptide where no visual growth of bacteria was detected.

On to gentamicin, for which the MIC of antibiotic with MG1655 (E. coli) worked out at 2.1 µM; in series [1], 8.4 µM.

With `CO[C@H]1/C=C/O[C@@]2(C)Oc3c(C)c(O)c4c(O)c(c(/C=N/N5CCN(C)CC5)c(O)c4c3C2=O)NC(=O)/C(C)=C\C=C\[C@H](C)[C@H](O)[C@@H](C)[C@@H](O)[C@@H](C)[C@H](OC(C)=O)[C@@H]1C` [Rifampicin, rifampicin], the MIC of antibiotic came out at 9.7 µM in the series on MG1655 (E. coli) and 77.8 µM in series [1].

Consider `C[C@H]1c2cccc(O)c2C(=O)C2=C(O)[C@]3(O)C(=O)C(C(N)=O)=C(O)[C@@H](N(C)C)[C@@H]3[C@@H](O)[C@@H]21` [Doxycycline, doxycycline], for which the MIC of antibiotic came to 4.5 µM in the series on MG1655 (E. coli) and 288.0 µM in series [1].

As for `[H]/N=C(/N)N[C@H]1[C@H](O)[C@@H](O)[C@H](O[C@@H]2O[C@@H](C)[C@](O)(C=O)[C@H]2O[C@@H]2O[C@@H](CO)[C@H](O)[C@@H](O)[C@@H]2NC)[C@@H](N/C(N)=N\[H])[C@@H]1O` [Streptomycin, streptomycin], the MIC of antibiotic (in series [2]; with DH5α (Escherichia coli); in series [3]) was 6.9 µM throughout.

With LL-37, in series [4], the “proteolytic degradation by HPLC” value is on record as “readily degraded”.
